≈ marks a conversion by molar mass, not a printed value. Where two headings read alike, the source gives them in different places.
Columns and labels:
Format in all cases: cell-based
[1] = test system: MCF-7 human breast cancer cells; experiment: XTT cytotoxicity assay, MCF-7 (M); conditions: MCF7, MCF-7, 72 hours
Method: XTT Cytotoxicity Assay The XTT assay is a non-radioactive alternative for the [^51Cr] release cytotoxicity assay. XTT is a tetrazolium salt that is reduced to a formazan dye only by metabolically active, viable cells. The reduction of XTT is measured spectrophotometrically as OD490-OD650. To measure the cytotoxicity of specific compounds against cancer cells, 9×10^3 MCF-7 human breast cancer cells (shown in the tables as “(M)”), obtained from the American Type Culture Collection are plated per well in 96 well plates in DMEM medium with 10% fetal bovine serum, insulin, penicillin, and streptomycin. Following overnight culture at 37° C. and 5% CO2, the compounds to be tested, dissolved in DMSO, are added to the wells in 1 μl volume at the following concentrations: 80, 40, 20, 10, 5, 2.5, 1.25, and 0.625 μg/ml in triplicate. Additional concentrations are tested if required. 1 μl of DMSO is added to triplicate wells are the vehicle control. C75 is run at 40, 20, […], and 5 μg/ml in triplicate as positive controls. After 72 hours of incubation, cells are incubated for 4 hours with the XTT reagent as per manufacturer's instructions (Cell Proliferation Kit II (XTT) Roche). Plates are read at OD490 and OD650 on a Molecular Devices SpectraMax Plus Spectrophotometer. Three wells containing the XTT reagent without cells serve as the plate blank. XTT data are reported as OD490-OD650. Averages and standard error of the mean are computed using SOFTmax Pro software (Molecular Dynamics). The IC50 for the compounds is defined as the concentration of drug leading to a 50% reduction in OD490-OD650 compared to controls. The OD490-OD650 are computed by the SOFTmax PRO software (Molecular Devices) for each compound concentration. IC50 is calculated by linear regression, plotting the FAS activity as percent of control versus drug concentrations. Linear regression, best-fit line, r^2, and 95% confidence intervals are determined using Prism Version 3.0 (Graph Pad Software).

[2] = test system: Enterococcus faecalis (ATCC # 29212); experiment: Broth microdilution antimicrobial assay, E. faecalis; conditions: for MIC: Enterococcus faecalis, ATCC29212
Method: Antimicrobial Properties A broth microdilution assay is used to assess the antimicrobial activity of the compounds. Compounds are tested at twofold serial dilutions, and the concentration that inhibits visible growth (OD600 at 10% of control) is defined as the MIC. Microorganisms tested include Staphylococcus aureus (ATCC # 29213), Enterococcus faecalis (ATCC # 29212), Pseudomonas aerpginosa (ATCC # 27853), and Escherichia coli (ATCC # 25922). The assay is performed in two growth media, Mueller Hinton Broth and Trypticase Soy Broth.
A blood (Tsoy/5% sheep blood) agar plate is inoculated from frozen stocks maintained in T soy broth containing 10% glycerol and incubated overnight at 37° C. Colonies are suspended in sterile broth so that the turbidity matches the turbidity of a 0.5 McFarland standard. The inoculum is diluted 1:10 in sterile broth (Mueller Hinton or Trypticase soy) and 195 μl is dispensed per well of a 96-well plate. The compounds to be tested, dissolved in DMSO, are added to the wells in 5 μl volume at the following concentrations: 25, 12.5, 6.25, 3.125, 1.56 and 0.78 μg/ml in duplicate. Additional concentrations are tested if required. 5 μl of DMSO added to duplicate wells are the vehicle control. Serial dilutions of positive control compounds, vancomycin (E. faecalis and S. aureus) and tobramycin (E. coli and P. aerpginosa), are included in each run.
After 24 hours of incubation at 37° C., plates are read at OD600 on a Molecular Devices SpectraMax Plus Spectrophotometer. Average OD600 values are computed using SOFTmax Pro Software (Molecular Devices) and MIC values are determined by linear regression analysis using Prism version 3.02 (Graph Pad Software, San Diego). The MIC is defined as the concentration of compound required to produce an OD600 reading equivalent to 10% of the vehicle control reading.

[3] = test system: MCF-7 human breast cancer cells (fatty acid synthesis pathway activity); experiment: [14C]acetate incorporation into total lipids; conditions: MCF7, [14C]acetate incorporation into lipids
Method: Measurement of [^14C]acetate Incorporation into Total Lipids and Determination of IC50 of Compounds. This assay measures the incorporation of [^14C]acetate into total lipids and is a measure of fatty acid synthesis pathway activity in vitro. It is utilized to measure inhibition of fatty acid synthesis in vitro.
MCF-7 human breast cancer cells cultured as above, are plated at 5×10^4 cells per well in 24-well plates. Following overnight incubation, the compounds to be tested, solubilized in DMSO, are added at 5, 10, and 20 μg/ml in triplicate, with lower concentrations tested if necessary. DMSO is added to triplicate wells for a vehicle control. C75 is run at 5 and 10 μg/ml in triplicate as positive controls. After 4 hours of incubation, 0.25 μCi of [^14C]acetate (10 μl volume) is added to each well.
After 2 hours of additional incubation, medium is aspirated from the wells and 800 μl of chloroform:methanol (2:1) and 700 μl of 4 mM MgCl2 is added to each well. Contents of each well are transferred to 1.5 Eppendorf tubes, and spun at full-speed for 2 minutes in a high-speed Eppendorf Microcentrifuge 5415D. After removal of the aqueous (upper) layer, an additional 700 μl of chloroform:methanol (2:1) and 500 μl of 4 mM MgCl2 are added to each tube and then centrifuged for 1 minutes as above. The aqueous layer is removed with a Pasteur pipette and discarded. An additional 400 μl of chloroform:methanol (2:1) and 200 μl of 4 mM MgCl2 are added to each tube, then centrifuged and aqueous layer is discarded. The lower (organic) phase is transferred into a scintillation vial and dried at 40° C. under N2 gas. Once dried, 3 ml of scintillant (APB #NBC5104) is added and vials are counted for ^14C. The Beckman Scintillation counter calculates the average cpm values for triplicates.
The IC50 for the compounds is defined as the concentration of drug leading to a 50% reduction in [^14C]acetate incorporation into lipids compared to controls. This is determined by plotting the average cpm for each inhibitor concentration tested, performing linear regression and computing the best-fit line, r^2 values, and 95% confidence intervals. The average cpm values are computed by the Beckman scintillation counter (Model LS6500) for each compound concentration. Computation of linear regression, best-fit line, r^2, and 95% confidence intervals are calculated using Prism Version 3.0 (Graph Pad Software).

Compound: CCCCCCCCC1(C)OC(=O)C=C1OCC(=O)Nc1ccc(Cl)cc1 (centres unmarked)
- IC50 [1]: 6 µg/mL (≈ 15.2 µM)
- MIC ([2]; Mueller Hinton Broth, read-out: EF/MH (MIC)): 70 µg/mL (≈ 178 µM)
- EF/Tsoy (MIC) ([2]; Trypticase Soy Broth): Neg

Compound: CCCCCCCCC1(C)SC(=O)C=C1OCC(=O)Nc1ccccc1SC (centres unmarked)
- IC50 [1]: 26.9 µg/mL (≈ 63.8 µM)
- IC50 [3]: > 80 µg/mL

Compound: CCCCCCCCC1(C)SC(=O)C=C1OCC(=O)Nc1ccc2c(c1)OCO2 (centres unmarked)
- IC50 [1]: 8.2 µg/mL (≈ 19.5 µM)
- EF/MH (MIC) ([2]; Mueller Hinton Broth): Neg
- EF/Tsoy (MIC) ([2]; Trypticase Soy Broth): Neg

Compound: CCCCCCCCC1(C)SC(=O)C=C1OCC(=O)Nc1ccc(Oc2ccc(Cl)cc2)cc1 (centres unmarked)
- IC50 [1]: 3.1 µg/mL (≈ 6.17 µM)
- IC50 [3]: > 80 µg/mL
- EF/MH (MIC) ([2]; Mueller Hinton Broth): Neg
- EF/Tsoy (MIC) ([2]; Trypticase Soy Broth): Neg

Compound: CCCCCCCC[C@]1(C)SC(=O)C=C1OCC(=O)Nc1ccccc1OC(F)(F)F
- IC50 [1]: > 80 µg/mL
- IC50 [3]: > 80 µg/mL

Compound: CCCCCCCCC1(C)SC(=O)C=C1OCC(=O)Nc1ccc(C(F)(F)F)cc1 (centres unmarked)
- IC50 [1]: 2.2 µg/mL (≈ 4.96 µM)
- IC50 [3]: < 2.5 µg/mL
- EF/MH (MIC) ([2]; Mueller Hinton Broth): Neg
- EF/Tsoy (MIC) ([2]; Trypticase Soy Broth): Neg

Compound: CCCCCCCCC1(C)SC(=O)C=C1OCC(=O)Nc1ccccc1N1CCCCC1 (centres unmarked)
- IC50 [1]: 18.6 µg/mL (≈ 40.6 µM)
- EF/MH (MIC) ([2]; Mueller Hinton Broth): Neg
- EF/Tsoy (MIC) ([2]; Trypticase Soy Broth): Neg

Compound: CCCCCCCCC1(C)SC(=O)C=C1OCC(=O)Nc1ccc(OC(F)(F)F)cc1 (centres unmarked)
- IC50 [1]: 1.8 µg/mL (≈ 3.92 µM)
- IC50 [3]: 8.2 µg/mL (≈ 17.8 µM)
- EF/MH (MIC) ([2]; Mueller Hinton Broth): Neg
- EF/Tsoy (MIC) ([2]; Trypticase Soy Broth): Neg

Compound: CCCCCCCCC1(C)SC(=O)C=C1OCC(=O)Nc1cccc(OC(F)(F)F)c1 (centres unmarked)
- IC50 [1]: 6.4 µg/mL (≈ 13.9 µM)
- IC50 [3]: 17.1 µg/mL (≈ 37.2 µM)

Compound: CCCCCCCCC1(C)SC(=O)C=C1OCC(=O)Nc1ccc(SC)cc1 (centres unmarked)
- IC50 [1]: 7.9 µg/mL (≈ 18.7 µM)
- IC50 [3]: > 80 µg/mL

Compound: CCCCCCCCC1(C)SC(=O)C=C1OCC(=O)Nc1ccc(OC)cc1 (centres unmarked)
- IC50 [1]: 9.7 µg/mL (≈ 23.9 µM)
- IC50 [3]: 23 µg/mL (≈ 56.7 µM)
- EF/MH (MIC) ([2]; Mueller Hinton Broth): Neg
- EF/Tsoy (MIC) ([2]; Trypticase Soy Broth): Neg

Compound: CCCCCCCCC1(C)SC(=O)C=C1OCC(=O)Nc1ccc(Cl)cc1Cl (centres unmarked)
- IC50 [1]: 16.8 µg/mL (≈ 37.8 µM)

Compound: CCCCCCCCOc1ccc(NC(=O)COC2=CC(=O)SC2(C)CCCCCCCC)cc1 (centres unmarked)
- IC50 [1]: > 80 µg/mL
- IC50 [3]: > 80 µg/mL
- EF/MH (MIC) ([2]; Mueller Hinton Broth): Neg
- EF/Tsoy (MIC) ([2]; Trypticase Soy Broth): Neg

Compound: CCCCCCCC[C@]1(C)SC(=O)C=C1OCC(=O)Nc1ccccc1C(F)(F)F
- IC50 [1]: 17.6 µg/mL (≈ 39.7 µM)
- IC50 [3]: > 80 µg/mL

Compound: CCCCCCCCC1(C)SC(=O)C=C1OCC(=O)Nc1ccc(-c2cccs2)cc1 (centres unmarked)
- IC50 [1]: > 80 µg/mL
- IC50 [3]: 80.2 µg/mL (≈ 175 µM)
- EF/MH (MIC) ([2]; Mueller Hinton Broth): Neg
- EF/Tsoy (MIC) ([2]; Trypticase Soy Broth): Neg

Compound: CCCCCCCCC1(C)SC(=O)C=C1OCC(=O)Nc1ccc(Cl)cc1 (centres unmarked)
- IC50 [1]: 5.2 ± 2 µg/mL (≈ 12.7 µM)
- IC50 [3]: 19.2 ± 2 µg/mL (≈ 46.8 µM)
- MIC ([2]; Trypticase Soy Broth, read-out: EF/Tsoy (MIC)): 44 µg/mL (≈ 107 µM)
- EF/MH (MIC) ([2]; Mueller Hinton Broth): Neg

Compound: CCCCCCCCC1(C)SC(=O)C=C1OCC(=O)Nc1ccc(Cl)cc1C(F)(F)F (centres unmarked)
- IC50 [1]: 9.6 µg/mL (≈ 20.1 µM)
- EF/MH (MIC) ([2]; Mueller Hinton Broth): Neg
- EF/Tsoy (MIC) ([2]; Trypticase Soy Broth): Neg

Compound: CCCCCCCCC1(C)SC(=O)C=C1OCC(=O)Nc1ccccc1 (centres unmarked)
- IC50 [1]: 6.2 µg/mL (≈ 16.5 µM)
- EF/MH (MIC) ([2]; Mueller Hinton Broth): Neg
- EF/Tsoy (MIC) ([2]; Trypticase Soy Broth): Neg

Compound: CCCCCCCCC1(C)SC(=O)C=C1OCC(=O)Nc1cccc(C(F)(F)F)c1 (centres unmarked)
- IC50 [1]: 5.9 µg/mL (≈ 13.3 µM)
- IC50 [3]: 12.3 µg/mL (≈ 27.7 µM)

Reference: patent publication US20110288052A1, “NOVEL COMPOUNDS, PHARMACEUTICAL COMPOSITIONS CONTAINING SAME, AND METHODS OF USE FOR SAME” (priority 2008, published 2011)
